Test results reported in patent publication US20180339976A1, “NOVEL TRIAZOLE DERIVATIVES” (priority 2015, published 2018).

Assay: Log P by HPLC on reversed phase columns (EEC directive 79/831 Annex V.A8)
Format: physicochemical
Settings: not given
Protocol: Measurement of Log P values was performed according to EEC directive 79/831 Annex V.A8 by HPLC (High Performance Liquid Chromatography) on reversed phase columns with the following methods: • ^[a]
If more than one Log P value is available within the same method, all the values are given and separated by “+”.
Lambda-max-values were determined using UV-spectra from 200 nm to 400 nm and the peak values of the chromatographic signals.

LogP	SMILES
1.96^[a]	OC(Cc1cc(Cl)ncc1F)(Cn1cncn1)c1ccc(F)cc1 (stereo not drawn) [Example I-32]
1.47^[a]	OC(Cc1ccncc1F)(Cn1cncn1)c1ccc(F)cc1F (stereo not drawn) [Example I-43]
3.02^[a]	OC(Cc1cc(F)ncc1Cl)(Cn1cncn1)c1ccc(Oc2ccc(F)cc2F)cc1 (stereo not drawn) [Example I-54]
2.57^[a]	OC(Cc1ccnc(Cl)c1)(Cn1cncn1)c1ccc(Oc2ccccc2)cc1 (stereo not drawn) [Example I-24]
1.84^[a]	OC(Cc1ccnc(Cl)c1F)(Cn1cncn1)c1ccccc1 (stereo not drawn) [Example I-49]
2.22^[a]	OC(Cc1cccnc1Cl)(Cn1cncn1)c1ccc(C(F)(F)F)cc1 (stereo not drawn) [Example I-16]
1.96^[a]	OC(Cc1ccnc(Cl)c1)(Cn1cncn1)c1ccc(Cl)cc1 (stereo not drawn) [Example I-47]
2.27^[a]	OC(Cc1ccncc1F)(Cn1cncn1)c1ccc(Oc2ccc(F)cc2F)cc1 (stereo not drawn) [Example I-20]

SMILES	LogP
OC(Cc1ccncc1Cl)(Cn1cncn1)c1ccc(F)cc1 (stereo not drawn) [Example I-18]	1.57^[a]
OC(Cc1ccncc1Cl)(Cn1cncn1)c1ccc(Cl)cc1Cl (stereo not drawn) [Example I-42]	2.38^[a]
OC(Cc1ccnc(Cl)c1F)(Cn1cncn1)c1ccc(F)cc1F (single isomer, unassigned) [Example I-56]	2.21^[a]
OC(Cc1ccncc1F)(Cn1cncn1)c1ccc(Oc2ccccc2)cc1 (stereo not drawn) [Example I-03]	2.13^[a]

Same assay, conditions: Table 1, formula (I); method [a]: LC-UV, acidic range, 0.1% formic acid in water and acetonitrile

SMILES	LogP
OC(Cc1ccncc1F)(Cn1cncn1)c1ccc(-c2ccccc2)cc1 (stereo not drawn) [Example I-04]	2.13^[a]
OC(Cc1cc(F)ncc1Cl)(Cn1cncn1)c1ccc(-c2ccccc2)cc1 (stereo not drawn) [Example I-27]	3.02^[a]

Same assay, conditions: Table 2, epoxides of formula (XII); method [a]: LC-UV, acidic range, 0.1% formic acid in water and acetonitrile

SMILES	LogP
Clc1cnccc1CC1(c2ccc(Oc3ccccc3)cc2)CO1 (stereo not drawn) [XII-32]	3.80^[a]
Clc1ccc(C2(Cc3ccnc(Cl)c3)CO2)c(Cl)c1 (stereo not drawn) [XII-10]	3.85^[a]
Fc1ccc(Oc2ccc(C3(Cc4c(Cl)cncc4Cl)CO3)cc2)c(F)c1 (racemic) [XII-52]	4.70^[a]
Fc1cc(CC2(c3ccc(Cl)cc3)CO2)c(Cl)cn1 (racemic) [XII-37]	3.85^[a]
Fc1cnc(Cl)cc1CC1(c2ccc(-c3ccccc3)cc2)CO1 (stereo not drawn) [XII-22]	4.28^[a]
Fc1cnccc1CC1(c2ccc(-c3ccccc3)cc2)CO1 (stereo not drawn) [XII-8]	3.37^[a]
Clc1ccccc1C1(Cc2c(Cl)cncc2Cl)CO1 (racemic) [XII-59]	4.04^[a]
Clc1ccc(C2(Cc3ccnc(Cl)c3)CO2)cc1 (stereo not drawn) [XII-15]	3.19^[a]
Fc1ccc(Oc2ccc(C3(Cc4cc(Cl)ncc4F)CO3)cc2)c(F)c1 (stereo not drawn) [XII-21]	4.17^[a]
Fc1ccc(C2(Cc3ccncc3F)CO2)c(F)c1 (stereo not drawn) [XII-6]	2.38^[a]
Fc1ccc(C2(Cc3c(Cl)cncc3Cl)CO2)cc1 (racemic) [XII-56]	3.58^[a]
Fc1ccc(C2(Cc3ccnc(Cl)c3F)CO2)cc1 (racemic) [XII-50]	3.11^[a]
Clc1ccc(C2(Cc3cccnc3Cl)CO2)cc1 (stereo not drawn) [XII-24]	3.25^[a]
Clc1ccc(C2(Cc3ccncc3Cl)CO2)cc1 (stereo not drawn) [XII-30]	3.15^[a]
Fc1ccc(C2(Cc3ccncc3Cl)CO2)c(F)c1 (stereo not drawn) [XII-34]	2.76^[a]
Fc1cnccc1CC1(c2ccc(Cl)cc2)CO1 (stereo not drawn) [XII-2]	2.65^[a]
Clc1cc(CC2(c3ccc(Oc4ccccc4)cc3)CO2)ccn1 (stereo not drawn) [XII-9]	3.37^[a]
Fc1c(CC2(c3ccc(-c4ccccc4)cc3)CO2)ccnc1Cl (racemic) [XII-45]	4.25^[a]
Clc1ccccc1COc1cccc(C2(Cc3ccncc3Cl)CO2)c1 (racemic) [XII-63]	4.30^[a]
